Results from patent US20260042755A1, “GPR6 INVERSE AGONISTS” (MapLight Therapeutics, Inc., priority 2022, published 2026).
One block for each compound: values may come before it.

What was measured:
GPR6 = target: T1, GPR6 (Homo sapiens, UniProt P46095); test: GPR6 antagonist functional cAMP assay (LANCE Ultra cAMP TR-FRET, CHO cells stably expressing GPR6); assay type: cell-based
T1 construct: expressed in transfected cells; host or cells: CHO cells
Outline: (§1)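 Suspended cells were plated at 10,000 per well in Krebs-Ringer bicarbonate buffer containing 0.1% BSA and 150 μM Ro 20-1724, then treated with compounds for 45 min at 37 °C. Intracellular cAMP was then quantified by TR-FRET immunoassay.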

GPR3 = target: T2, GPR3 (Homo sapiens, UniProt P46089); test: GPR3 antagonist functional cAMP assay (LANCE Ultra cAMP TR-FRET, CHO cells stably expressing GPR3); assay type: cell-based
T2 construct: expressed in transfected cells; host or cells: CHO cells
Outline: as §1

[1] = CHO cells stably expressing GPR6, cAMP assay (Example 24)
[2] = CHO cells stably expressing GPR3, cAMP assay (Example 24)
[3] = CHO cells stably expressing GPR6, cAMP assay
[4] = CHO cells stably expressing GPR3, cAMP assay
[5] = procedure as described in Example 24

T2 sequence (P46089 whole entry, species assumed): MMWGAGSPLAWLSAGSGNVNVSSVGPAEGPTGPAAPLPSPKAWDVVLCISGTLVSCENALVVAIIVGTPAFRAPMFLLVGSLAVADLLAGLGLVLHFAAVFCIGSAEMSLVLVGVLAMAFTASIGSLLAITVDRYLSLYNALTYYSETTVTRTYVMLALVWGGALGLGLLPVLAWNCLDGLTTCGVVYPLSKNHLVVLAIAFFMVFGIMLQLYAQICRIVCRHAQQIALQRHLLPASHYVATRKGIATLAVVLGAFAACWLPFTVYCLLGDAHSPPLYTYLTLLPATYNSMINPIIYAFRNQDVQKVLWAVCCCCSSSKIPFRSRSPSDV
T1 sequence (P46095 whole entry): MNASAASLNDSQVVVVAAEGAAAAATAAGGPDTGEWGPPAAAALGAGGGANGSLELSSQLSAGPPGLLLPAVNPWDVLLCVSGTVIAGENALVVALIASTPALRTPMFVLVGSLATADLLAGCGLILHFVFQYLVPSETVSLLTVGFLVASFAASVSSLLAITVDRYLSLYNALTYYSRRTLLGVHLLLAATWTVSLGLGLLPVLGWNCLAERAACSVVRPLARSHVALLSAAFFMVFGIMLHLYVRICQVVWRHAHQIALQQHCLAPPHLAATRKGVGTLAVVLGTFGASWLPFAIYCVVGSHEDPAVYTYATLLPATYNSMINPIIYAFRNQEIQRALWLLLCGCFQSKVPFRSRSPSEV

Structure (SMILES): CNC(=O)C(C)N1CCc2nc(N3CCC(Oc4ccc(F)cc4F)CC3)c(-c3cnn(C4CCCCO4)c3)nc2C1 (stereo not drawn) [Compound 146, 2-{2-[4-(2,4-difluorophenoxy)piperidin-1-yl]-3-[1-(oxan-2-yl)-1H-pyrazol-4-yl]-5H,6H,7H,8H-pyrido[3,4-b]pyrazin-6-yl}-N-methylpropanamide]
IC50 (GPR6; [1]): 1000 to 30000 nM
IC50 (GPR3; [2]): 1 to 30 µM

Structure (SMILES): CC(=O)N1CCc2nc(N3CCC(Oc4ccc(F)cc4F)CC3)c(-c3cnn([C@H](C)C#N)c3)nc2C1 (single isomer, unassigned) [Compound 272]
IC50 (GPR6; procedure of Example 24): 100 to 1000 nM
IC50 (GPR3; procedure of Example 24): 1 to 30 µM

Structure (SMILES): Clc1ccc(Cl)c(CN2CCN(c3nc4ccncc4nc3-c3ncc[nH]3)CC2)c1 [Compound 5, 1-[(2,5-dichlorophenyl)methyl]-4-[3-(1H-imidazol-2-yl)pyrido[3,4-b]pyrazin-2-yl]piperazine]
IC50 (GPR6; [5]): 100 to 1000 nM
IC50 (GPR3; [5]): 1 to 30 µM

Structure (SMILES): CC(=O)N1CCc2nc(N3CCN(C(=O)c4ccc(F)cc4)CC3)c(-c3cnn(C)c3)nc2C1 [Compound 255, 1-{2-[4-(4-fluorobenzoyl)piperazin-1-yl]-3-(1-methyl-1H-pyrazol-4-yl)-5H,6H,7H,8H-pyrido[3,4-b]pyrazin-6-yl}ethan-1-one]
IC50 (GPR6; [1]): 1000 to 30000 nM
IC50 (GPR3; [2]): 1 to 30 µM

Structure (SMILES): CCn1cc(-c2nc3cnccc3nc2N2CCC(Oc3cc(Cl)ccc3Cl)CC2)cn1 [Compound 288, 4-(2,5-dichlorophenoxy)-1-[3-(1-ethyl-1H-pyrazol-4-yl)pyrido[3,4-b]pyrazin-2-yl]piperidine]
IC50 (GPR6; procedure of Example 24): < 100 nM
IC50 (GPR3; procedure of Example 24): 1 to 30 µM

Structure (SMILES): COc1cc(-c2nc3c(nc2N2CCC(Oc4ccc(F)cc4F)CC2)CCN(C(C)=O)C3)ccn1 [Compound 20, 1-{2-[4-(2,4-difluorophenoxy)piperidin-1-yl]-3-(2-methoxypyridin-4-yl)-5H,6H,7H,8H-pyrido[3,4-b]pyrazin-6-yl}ethan-1-one]
IC50 (GPR6; [5]): 100 to 1000 nM
IC50 (GPR3; [5]): 1 to 30 µM

Structure (SMILES): COc1ccc(-c2nc3c(nc2N2CCC(Oc4ccc(F)cc4F)CC2)CCN(C(C)=O)C3)cn1 [Compound 126, 1-{2-[4-(2,4-difluorophenoxy)piperidin-1-yl]-3-(6-methoxypyridin-3-yl)-5H,6H,7H,8H-pyrido[3,4-b]pyrazin-6-yl}ethan-1-one]
IC50 (GPR6; [1]): 100 to 1000 nM
IC50 (GPR3; [2]): 1 to 30 µM

The remaining lines, values ahead:

IC50 (GPR6; [3]): 100 to 1000 nM
IC50 (GPR3; [4]): ≥ 30 µM
Structure (SMILES): CC(=O)N1CCc2nc(N3CCN(C(CO)(CO)c4cc(F)ccc4F)CC3)c(-c3cnn(C)c3)nc2C1 [Compound 551, 1-(2-{4-[1-(2,5-difluorophenyl)-2-hydroxy-1-(hydroxymethyl)ethyl]-1-piperazinyl}-3-(1-methyl-4-pyrazolyl)-5,6,7,8-tetrahydro-1,4,6-triaza-6-naphthyl)-1-ethanone]

IC50 (GPR6; [3]): 100 to 1000 nM
IC50 (GPR3; [4]): 1 to 30 µM
Structure (SMILES): CC(=O)N1CCc2nc(N3CCN(Cc4ccccc4Br)CC3)c(-c3cnn(C)c3)nc2C1 [Compound 508, 1-(2-{4-[(o-bromophenyl)methyl]-1-piperazinyl}-3-(1-methyl-4-pyrazolyl)-5,6,7,8-tetrahydro-1,4,6-triaza-6-naphthyl)-1-ethanone]

IC50 (GPR6; [1]): 1000 to 30000 nM
IC50 (GPR3; [2]): 1 to 30 µM
Structure (SMILES): CC(=O)N1CCc2nc(N3CCC(C(=O)N4CCN(C)C(=O)C4)C3)c(-c3cnn(C)c3)nc2C1 (stereo not drawn) [Compound 390, 4-{1-[6-acetyl-3-(1-methyl-1H-pyrazol-4-yl)-5H,6H,7H,8H-pyrido[3,4-b]pyrazin-2-yl]pyrrolidine-3-carbonyl}-1-methylpiperazin-2-one]

IC50 (GPR6; procedure of Example 24): 100 to 1000 nM
IC50 (GPR3; procedure of Example 24): 1 to 30 µM
Structure (SMILES): CC(C)(O)[C@@](C)(O)c1cc2nc(N3CCN(Cc4ccc(F)cc4F)CC3)c(-c3cnn(CF)c3)nc2cn1 (single isomer, unassigned) [Compound 650]

IC50 (GPR6; procedure of Example 24): 1000 to 30000 nM
IC50 (GPR3; procedure of Example 24): 1 to 30 µM
Structure (SMILES): Fc1ccc(OC2CC=C(c3nc4ccncc4nc3-c3ncco3)CC2)c(F)c1 (stereo not drawn) [Compound 301, 2-{2-[4-(2,4-difluorophenoxy)cyclohex-1-en-1-yl]pyrido[3,4-b]pyrazin-3-yl}-1,3-oxazole]
